In patent publication US20240366813A1, “PEPTIDE-UREA DERIVATIVE, PHARMACEUTICAL COMPOSITION CONTAINING SAME AND APPLICATION THEREOF” (Bivision Pharmaceuticals, Inc., priority 0001, published 2024):
Several values for one entry are separate records, joined by “and”; a condition that tells them apart may be missing. Equal entries are not always repeated.

Key:
[1] = system: LNCaP PSMA-positive tumors; assay: SPECT imaging in mice carrying LNCaP PSMA-positive tumors; type: in vivo; conditions: 100 μCi tail vein
Description: 100 μCi of ^177Lu-labeled ^177Lu-E3 and ^177Lu-PSMA-617 were injected into mice carrying LNCaP PSMA-positive tumors (Jiangsu Huajing Molecular Imaging and Drug Research Institute Co., Ltd.) through the tail vein respectively. Mice were anesthetized with 2% isoflurane/98% oxygen for SPECT image contrast study.

22rv1 xenograft tumor = assay: Pharmacodynamic study in 22rv1 mouse xenograft tumor model (effect example 11); type: in vivo, mice; conditions: over the two dose groups
22rv1 tumor = assay: Tissue distribution in PSMA-positive 22rv1 tumor-bearing mice; type: in vivo; conditions: tail vein, FIG. 8
Description: Tissue distribution in PSMA-positive tumor-bearing mice: About 6-9 weeks old (Nod scid) mice (Jiangsu Huajing Molecular Imaging and Drug Research Institute Co., Ltd.) were inoculated subcutaneously with 5×10^6 cells of 22rv1 (in 50% Matrigel, Corning) on the right shoulder of animals. When the tumor grew to a size of about 150-350 mm^3, ^177Lu-E3 radiolabeled compound was injected into the tail vein of the mouse (about 7.4 MBq/mouse, specific activity: 22423.82 KBq/μg). The animals were euthanized by carbon dioxide inhalation at 0.25, 0.5, 1, 6, 24, 72, 144, and 168 hours respectively after administration. Blood and viscera (blood, liver, spleen, lung, heart, muscle, pancreas, testis, tumor) were collected from animals after euthanasia.
(§1) Blood was collected through the abdominal aorta, and immediately after collection, 100 μL was quantified into a designated centrifuge tube (weighed). After the viscera were collected, they were washed twice with deionized water and wiped dry. The viscera were put into a pre-weighed test tube, and weighed again. The weight of the sample was calculated. The sample was measured on the day of collection. All blood samples and tissue samples were measured for radioactive counts using a gamma counter, and the results are shown in FIG. 8.

[2] = In vivo metabolism test of 177Lu-labeled complex in SD rats (plasma radioactive counts); conditions: for plasma radioactive counts: individual rat, 100 μL plasma; for plasma radioactive counts, MEAN: mean of rats
Description: Eighteen SD rats (Hangzhou Ziyuan Experimental Animal Technology Co., Ltd.), male, weighing 180-200 g, were randomly divided into 6 groups, 3 rats in each group. […] of the labeled precursor compound was injected into the tail vein of each mouse. 250 μL of orbital blood was collected into anticoagulant tubes at 5 min, 0.5 h, 1 h, 2 h, 4 h, 8 h and 24 h after administration. Blood was centrifuged at 3000 rpm for 10 min, and 100 μL of plasma was taken into scintillation vials. 2 mL of scintillation fluid was added to each scintillation vial and shaken well. A liquid scintillation counter was used to detect radioactive counts in each vial.

[3] = system: 22rv1 PSMA-expressing tumors; assay: SPECT imaging in 22rv1 tumor-bearing balb/c nude mice (effect example 10); type: in vivo; conditions: about 7.4 MBq/mouse tail vein
Description: About 4-5 weeks old (balb/c nude, Beijing Vital River) mice were subcutaneously inoculated with 5×10^6 cells of 22rv1 (in 50% Matrigel, Corning) on the right scapula of animals. When the tumor grew to a size of about 150-350 mm^3, after anesthesia with isoflurane, ^177Lu-PSMA-617, ^177Lu-E3, ^177Lu-E4, ^177Lu-E8, ^177Lu-E16, ^177Lu-E18, ^177Lu-E24 radiolabeled compounds were injected into the tail vein of mice (about 7.4 MBq/mouse, specific activity: 22423.82 KBq/μg). Subsequently, SPECT imaging was performed with a small animal SPECT-CT imaging system (U-SPECT+/CT, MI Labs) at 1 h, 5 h, 24 h, 48 h and 72 h, respectively. ^177Lu-PSMA-617 is shown in FIG. 9, ^177Lu-E3 is shown in FIG. 10, ^177Lu-E4 is shown in FIG. 11, ^177Lu-E8 is shown in FIG. 12, ^177Lu-E16 is shown in FIG. 13, ^177Lu-[…] is shown in FIG. 14, and ^177Lu-E24 is shown in FIG. 15. […] The main way of drug elimination is through the kidney.

[4] = In vivo distribution in healthy SD rats; conditions: intravenous, FIG. 7
Description: In vivo distribution in healthy rats: Radiolabeled E series compounds were injected into the tail vein of SD rats aged 6-9 weeks (Hangzhou Ziyuan Testal Animal Technology Co., Ltd.) (about 7.4 MBq/mouse, specific activity: 84200.14 kBq/μg). At different time points (0.25, 0.5, 1, 2, 4, 6, 24, 48, 72 h) after administration of labeled compounds to SD rats, the animals were euthanized by carbon dioxide inhalation, and the blood and […] viscera (blood, liver, spleen, lungs, heart, muscle, pancreas, testes) of the animals were collected after euthanasia.
as §1, with “water,” for “water and”, “dry,” for “dry. The viscera were”, “samples” for “the sample”, “counter.” for “counter, and the results are shown in FIG. 8.”

[5] = 5 min after tail vein injection
[6] = 0.5 h after tail vein injection

SMILES: O=C([O-])CN1CCN(CC(=O)[O-])CCN(CC(=O)N2CCc3cc(C(=O)NC(Cc4ccc5ccccc5c4)C(=O)NCCCCC(NC(=O)NC(CCC(=O)O)C(=O)O)C(=O)O)ccc3C2)CCN(CC(=O)[O-])CC1.[177Lu+3] (stereo not drawn) [^177Lu-E3]
- accumulation in PSMA-positive tumors compared with reference animals injected with ^177Lu-PSMA-617 [1]: significantly higher
- route of excretion [1]: mainly excreted through the kidney
- Heart, Averaged ([1]; 1 h): 6.44 % ID/cc
- Kidney, Averaged ([1]; 1 h): 165.36 % ID/cc
- Liver, Averaged ([1]; 1 h): 3.08 % ID/cc
- Lung, Averaged ([1]; 1 h): 5.52 % ID/cc
- Tumor, Averaged ([1]; 1 h): 23.56 % ID/cc
- Heart, Averaged ([1]; 4 h): 2.41 % ID/cc
- Kidney, Averaged ([1]; 4 h): 129.55 % ID/cc
- Liver, Averaged ([1]; 4 h): 2.03 % ID/cc
- Lung, Averaged ([1]; 4 h): 3.26 % ID/cc
- Tumor, Averaged ([1]; 4 h): 28.79 % ID/cc
- Heart, Averaged ([1]; 8 h): 1.39 % ID/cc
- Kidney, Averaged ([1]; 8 h): 87.74 % ID/cc
- Liver, Averaged ([1]; 8 h): 2.54 % ID/cc
- Lung, Averaged ([1]; 8 h): 1.82 % ID/cc
- Tumor, Averaged ([1]; 8 h): 31.79 % ID/cc
- Heart, Averaged ([1]; 1 d): 3.23 % ID/cc
- Kidney, Averaged ([1]; 1 d): 8.03 % ID/cc
- Liver, Averaged ([1]; 1 d): 1.94 % ID/cc
- Lung, Averaged ([1]; 1 d): 2.71 % ID/cc
- Tumor, Averaged ([1]; 1 d): 34.01 % ID/cc
- Heart, Averaged ([1]; 3 d): 2.03 % ID/cc
- Kidney, Averaged ([1]; 3 d): 3.74 % ID/cc
- Liver, Averaged ([1]; 3 d): 1.80 % ID/cc
- Lung, Averaged ([1]; 3 d): 2.68 % ID/cc
- Tumor, Averaged ([1]; 3 d): 32.84 % ID/cc
- tumor growth inhibition rate (22rv1 xenograft tumor): 71-80%
- drug concentration in the tumor after 7 days (22rv1 tumor): high drug concentration
- time of highest uptake in the tumor after administration (22rv1 tumor): 2 h
- uptake in non-target organs (22rv1 tumor): always low
- plasma radioactive counts [2, 5]: 26791 cpm and 31372 cpm and 27797 cpm
- plasma radioactive counts [2, 6]: 10681 cpm and 8675 cpm and 8026 cpm
- plasma radioactive counts ([2]; 1 h after tail vein injection): 3448 cpm and 3676 cpm and 2916 cpm
- plasma radioactive counts ([2]; 2 h after tail vein injection): 539 cpm and 559 cpm and 458 cpm
- plasma radioactive counts ([2]; 4 h after tail vein injection): 178 cpm and 135 cpm and 181 cpm
- plasma radioactive counts ([2]; 8 h after tail vein injection): 154 cpm and 191 cpm and 184 cpm
- plasma radioactive counts ([2]; 24 h after tail vein injection): 191 cpm and 175 cpm and 179 cpm
- plasma radioactive counts, MEAN [2, 5]: 28653 cpm
- plasma radioactive counts, MEAN [2, 6]: 9127 cpm
- plasma radioactive counts, MEAN ([2]; 1 h after tail vein injection): 3347 cpm
- plasma radioactive counts, MEAN ([2]; 2 h after tail vein injection): 519 cpm
- plasma radioactive counts, MEAN ([2]; 4 h after tail vein injection): 165 cpm
- plasma radioactive counts, MEAN ([2]; 8 h after tail vein injection): 176 cpm
- plasma radioactive counts, MEAN ([2]; 24 h after tail vein injection): 182 cpm
- specific absorption in PSMA-expressing tumors after 72 hours [3]: high specific absorption
- uptake of radioactivity in PSMA-expressing tumors compared with ^177Lu-PSMA-617 [3]: higher uptake of radioactivity
- uptake in each organ [4]: low
